Experimental data from patent US7166588B2 (priority 2000, dated 2007).
Counter-ions that a name gives are not always drawn.

target: acetylcholinesterase (AChE), human recombinant (Homo sapiens, UniProt P22303); experiment: biochemical; details: pre-incubation of the enzyme with inhibitor, read-out: IC50 (AChE, mE, hr)
Sequence (P22303 32-614): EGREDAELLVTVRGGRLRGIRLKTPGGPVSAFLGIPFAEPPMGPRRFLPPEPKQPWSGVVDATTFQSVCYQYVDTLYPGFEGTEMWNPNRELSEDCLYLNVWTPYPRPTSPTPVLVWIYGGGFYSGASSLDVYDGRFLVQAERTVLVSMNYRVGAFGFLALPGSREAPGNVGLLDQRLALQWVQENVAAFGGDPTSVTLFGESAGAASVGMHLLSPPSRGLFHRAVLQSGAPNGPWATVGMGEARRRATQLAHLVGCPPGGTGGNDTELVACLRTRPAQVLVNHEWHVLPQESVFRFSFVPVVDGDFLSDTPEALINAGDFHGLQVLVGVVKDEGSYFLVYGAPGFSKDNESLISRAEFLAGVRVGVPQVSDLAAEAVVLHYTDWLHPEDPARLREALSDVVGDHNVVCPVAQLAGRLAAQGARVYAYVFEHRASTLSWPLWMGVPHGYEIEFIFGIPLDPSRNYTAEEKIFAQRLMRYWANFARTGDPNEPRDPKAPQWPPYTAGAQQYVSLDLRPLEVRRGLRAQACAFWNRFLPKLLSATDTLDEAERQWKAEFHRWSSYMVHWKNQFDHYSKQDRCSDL

Row | Compound | IC50
1 | COc1ccc2c3c1O[C@@H]1CC(O)C=CC31CCN(c1ccccc1)C2 (stereo partly shown) [SPH-1280] | 0.5 µM
2 | COc1cc(C)c2c3c1O[C@@H]1C[C@H](O)C=CC31CCN(CCCN1CCCCC1)C2 (stereo partly shown) [SPH-1201] | 46 µM
3 | COc1ccc2c3c1O[C@@H]1CC(O)C=CC31CCN(CC(=O)N1CC3CC1CN3c1ccccc1)C2 (stereo partly shown) [SPH-1314] | 8.4 µM
4 | COc1cc2c(cc1OC)C(=O)C(CCCCN1CCC34C=CC(O)C[C@H]3Oc3c(OC)ccc(c34)C1)C2 (stereo partly shown) [SPH-1335] | 0.02 µM
5 | COc1ccc2c3c1O[C@@H]1C[C@H](O)C=CC31CCN(c1ncccn1)C2 (stereo partly shown) [SPH-1229] | 38 µM
6 | COc1cc2c(cc1OC)C(=O)C(CCCCCN1CCC34C=CC(O)C[C@H]3Oc3c(OC)ccc(c34)C1)C2 (stereo partly drawn) [SPH-1359, 2-[5-[(4aS,6R,8aS)-6-Hydroxy-3-methoxy-5,6,9,10,11,12-hexahydro-4aH-benzofuro[3a,3,2-e,f][2]benzazepine-11-yl]pentyl]-5,6-dimethoxyindan-1-one] | 0.0052 µM
7 | COc1ccc2c3c1O[C@@H]1C[C@H](O)C=CC31CCN(CCCN1CC3CC1CN3c1ccc(F)cc1)C2 (stereo partly shown) [SPH-1196] | 5.2 µM
8 | COc1ccc2c3c1O[C@@H]1CC(O)C=CC31CCN(C)C2C#N (stereo partly shown) [SPH-1290] | 1.2 µM
9 | COc1ccc2c3c1O[C@@H]1CC(O)C=CC31CCN(c1cccs1)C2 (stereo partly shown) [SPH-1282] | 4 µM
10 | COc1ccc2c3c1O[C@@H]1CC(O)C=CC31CCN(C(=S)Oc1ccccc1)C2 (stereo partly shown) [SPH-1328] | 7.2 µM
11 | COc1ccc2c3c1O[C@H]1CC(O)C=C[C@@]31CC[N+](C)(CCCCl)C2 (single isomer, unassigned; (-)) [SPH-1191, (−)(3-Chloropropyl)-galanthaminium Bromide, 1.25 H2O] | 0.35 µM
12 | CNC(=S)N1CCC23C=C[C@@H](O)C[C@H]2Oc2c(OC)ccc(c23)C1 (stereo partly shown) [SPH-1287] | 18.5 µM
13 | COc1ccc2c3c1O[C@H]1CC(O)C=CC31CCN(C(=O)NC(C)C)C2 (stereo partly shown) [SPH-1284] | 8 µM
14 | COc1cc(C)c2c3c1OC1CC(O)C=CC31CCN(C)C2C (stereo not shown) [SPH-1320] | 83 µM
15 | COc1ccc2c3c1O[C@@H]1C[C@H](O)C=CC31CCN(C(=O)NC(C)(C)C)C2 (stereo partly shown) [SPH-1270] | 2.5 µM
16 | COc1ccc2c3c1O[C@@H]1CC(O)C=CC31CCN(CC#N)C2 (stereo partly shown) [SPH-1295] | 15 µM
17 | CCN(CC)c1nc(N(CC)CC)nc(N2CCC34C=C[C@@H](O)C[C@H]3Oc3c(OC)ccc(c34)C2)n1 (stereo partly shown) [SPH-1243] | 40 µM
18 | COc1ccc2c3c1O[C@H]1CC(O)C=C[C@@]31CCN(C(=O)OC(C)(C)C)C2 (relative stereo) [SPH-1302, (4aa,6β,8aR*)-4a,5,9,10-Tetrahydro-6-hydroxy-3-methoxy-6H-benzofuro[3a,3,2-ef][2]benzazepine-11(12H)-carboxylic acid-1,1-dimethylethyl ester] | 23 µM
19 | COc1ccc2c3c1O[C@@H]1C[C@H](O)C=CC31CCN(C(=O)Nc1ccc(Cl)cc1)C2 (stereo partly shown) [SPH-1237] | 24 µM
20 | COc1ccc2c3c1O[C@@H]1CC(O)C=CC31CCN(CC1CC1)C2 (stereo partly shown) [SPH-1289] | 0.7 µM

Row | Compound | IC50
21 | COc1ccc2c3c1O[C@@H]1C[C@H](O)C=CC31CCN(C(=O)Nc1ccc3ccccc3c1)C2 (stereo partly shown) [SPH-1232] | 36 µM
22 | COc1ccc2c3c1O[C@@H]1CC(O)C=CC31CCN(C(=O)NC(C)C)C2 (stereo in doubt) [SPH-1214, (6R)-6-Hydroxy-N^11-isopropyl-3-methoxy-5,6,9,10-tetrahydro-4aH-[1]benzofuro[3a,3,2-ef][2]benzazepine-11(12H)carboxamide] | 4.2 µM
23 | COc1ccc2c3c1O[C@@H]1CC(O)C=CC31CCN(C)C2C#N (stereo partly shown) [SPH-1291] | 0.8 µM
24 | C#CC[N+]1(C)CC[C@@]23C=C[C@@H](O)C[C@@H]2Oc2c(OC)cc(C)c(c23)C1 (mixture of isomers) [SPH-1251] | 59 µM
25 | COc1ccc2c3c1O[C@@H]1CC(O)C=CC31CCN(C)C2C (stereo partly shown) [SPH-1293] | 4.2 µM
26 | COc1ccc2c3c1O[C@H]1CC(O)C=C[C@@]31CC[N+](C)(Cc1ccc(Br)cc1)C2 (single isomer, unassigned; (-)) [SPH-1184, (−)(4-Bromophenyl)methylgalanthaminium bromide hemihydrate] | 0.2 µM
27 | COc1ccc2c3c1O[C@@H]1CC(O)C=CC31CCN(C(N)=O)C2 (stereo partly shown) [SPH-1268] | 44 µM
28 | COc1ccc2c3c1O[C@@H]1C[C@H](O)C=CC31CCN(CCC(=O)NC(C)(C)C)C2 (stereo partly shown) [SPH-1249] | 45 µM
29 | COc1ccc2c3c1O[C@@H]1CC(O)C=CC31CCN(CCCO)C2 (stereo partly shown) [SPH-1315] | 2.8 µM
30 | COc1cc(C)c2c3c1O[C@@H]1CC(O)C=CC31CCN(C)C2C#N (stereo partly shown) [SPH-1317] | 80 µM
31 | COc1ccc2c3c1O[C@@H]1C[C@H](N)C=CC31CCN(C)C2 (stereo partly drawn) [SPH-1227, [4aS-(4aα,6α,8aR*)]-4a,5,9,10,11,12-Hexahydro-3-methoxy-11-methyl-6H-benzofuro[3a,3,2-ef][2]benzazepine-6-amine] | 40 µM
32 | COc1cc(C)c2c3c1O[C@@H]1C[C@H](O)C=CC31CC[N+](C)(Cc1ccccc1)C2 (stereo partly shown) [SPH-1207] | 47 µM
33 | COc1ccc2c3c1O[C@@H]1C[C@H](O)C=CC31CCN(CCCO)C2 (stereo partly shown) [SPH-1220] | 7.2 µM
34 | CNC(=S)N1CCC23C=C[C@@H](O)C[C@H]2Oc2c(OC)ccc(c23)C1 (stereo partly shown) [SPH-1211] | 23 µM
35 | COc1ccc2c3c1O[C@@H]1C[C@H](O)C=CC31CCN(C(=O)Nc1ccccc1)C2 (stereo partly shown) [SPH-1215] | 70 µM
36 | COc1ccc2c3c1O[C@@H]1C[C@H](O)C=CC31CCN(C(=O)NC(C)c1ccccc1)C2 (stereo partly shown) [SPH-1267] | 30 µM
37 | COC(=O)/C=C(\C(=O)OC)N1CCC23C=C[C@@H](O)C[C@H]2Oc2c(OC)ccc(c23)C1 (stereo partly shown) [SPH-1259] | 140 µM
38 | COc1cc(C)c2c3c1O[C@@H]1C[C@H](O)C=CC31CC[N+](C)(Cc1ccc(C(F)(F)F)cc1)C2 (stereo partly shown) [SPH-1253] | 60 µM
39 | C=CCNC(=S)N1CCC23C=C[C@@H](O)C[C@H]2Oc2c(OC)ccc(c23)C1 (stereo partly shown) [SPH-1236] | 21 µM
40 | COc1ccc2c3c1O[C@@H]1CC(O)C=CC31CCN(CCCN1CCCCC1)C2 (stereo partly shown) [SPH-1286] | 0.3 µM

Row | Compound | IC50
41 | COc1ccc2c3c1O[C@@H]1CC(O)C=CC31CCN(C(=O)OCC1c3ccccc3-c3ccccc31)C2 (stereo partly shown) [SPH-1292] | 40 µM
42 | COc1ccc2c3c1O[C@@H]1C[C@H](O)C=CC31CCN(C(=O)NC(C)C)C2 (stereo partly shown) [SPH-1269] | 2.6 µM
43 | COc1ccc2c3c1O[C@@H]1CC(O)C=CC31CCN(CCCN1CCCCC1)C2 (stereo in doubt) [SPH-1371, (4aα,6b, 8aR* )-4a,5,9,10,111,12-Hexahydro-3-methoxy-11-[3-(1-piperidinyl)propyl]-6H-benzofuro[3a,3,2-ef][2]benzazepin-6-ol, Dihydrobromide, Dihydrate] | 0.36 µM
44 | COc1ccc2c3c1O[C@@H]1CC(O)C=CC31CCN(c1ccnc(OCCCN(C)C)n1)C2 (stereo in doubt) [SPH-1244, (6R)-11-(2-(3-(Dimethylamino)propoxy)-4-pyrimidinyl)-3-methoxy-5,6,9,10,11,12-hexahydro-4aH-[1]benzofuro[3a,3,2-ef][2]benzazepin-6-ol] | 7.6 µM
45 | CNC(=S)N1CCC23C=C[C@H](O)CC2Oc2c(OC)cc(Br)c(c23)C1 (stereo partly drawn) [SPH-1209, (6R)-1-Bromo-6-hydroxy-3-methoxy-N^11-methyl-5,6,9,10-tetrahydro-4aH-[1]benzofuro[3a,3,2-ef][2]benzazepine-11(12H)-thiocarboxylic acid amide] | 31 µM
46 | COc1ccc2c3c1O[C@H]1CC(O)C=CC31CCN(CCCN1CCCCC1)C2 (stereo partly shown) [SPH-1333] | 9 µM
47 | COc1ccc2c3c1O[C@@H]1C[C@H](O)C=CC31CCN(CCCN)C2 (stereo partly shown) [SPH-1235] | 3.4 µM
48 | COc1ccc2c3c1O[C@@H]1C[C@H](O)C=CC31CCN(CCC(=O)NC(C)C)C2 (stereo partly shown) [SPH-1262] | 54.5 µM
49 | COc1ccc2c3c1O[C@@H]1CC(O)C=CC31CCN(CCCN1CC3CC1CN3c1ccc(F)cc1)C2 (stereo partly shown) [SPH-1312] | 3 µM
50 | COc1cc2c(cc1OC)C(=O)C(CCCCCN1CCC34C=CC(O)C[C@H]3Oc3c(OC)ccc(c34)C1)C2 (stereo partly shown) [SPH-1375] | 0.023 µM
51 | C#CC[N+]1(C)CCC23C=C[C@@H](O)C[C@H]2Oc2c(OC)cc(C)c(c23)C1 (stereo partly shown) [SPH-1206] | 78 µM
52 | CCN(CC)c1nccc(N2CCC34C=C[C@@H](O)C[C@H]3Oc3c(OC)ccc(c34)C2)n1 (stereo partly shown) [SPH-1245] | 25 µM
53 | COc1cc2c(cc1OC)C(=O)C(CCCCN1CCC34C=CC(O)C[C@H]3Oc3c(OC)ccc(c34)C1)C2 (stereo partly shown) [SPH-1376] | 0.02 µM
54 | COc1ccc2c3c1O[C@@H]1CC(O)C=CC31CCN(/C(=N/C#N)SC)C2 (stereo partly shown) [SPH-1272] | 6.7 µM
55 | COc1ccc2c3c1O[C@@H]1CC(O)C=CC31CCN(C(=O)Oc1ccccc1)C2 (stereo partly shown) [SPH-1296] | 46 µM
56 | COc1ccc2c3c1O[C@@H]1C[C@H](O)C=CC31CCN(C(=O)NC(C)(C)C)C2 (stereo partly shown) [SPH-1221] | 4.8 µM
57 | COc1ccc2c3c1O[C@H]1CC(O)C=CC31CCN(C(=O)NC(C)(C)C)C2 (stereo partly shown) [SPH-1283] | 93 µM
58 | COc1ccc2c3c1O[C@@H]1C[C@H](O)C=CC31CCN(C=C(C#N)C#N)C2 (stereo partly shown) [SPH-1219] | 28.5 µM
